Measurements: ChEMBL document CHEMBL1201862, “PubChem BioAssay data set” (2004)
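In this assay, cells in 96-well plates receive the compound at five concentrations for 48 hours. Endpoints are linearly interpolated between the surrounding concentrations. Here, GI50 denotes the concentration required for 50% inhibition of growth.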 Active and inactive are the calls of the source. Cut-off read from the data, not from the text of the source: active = GI50 up to about 1.1 µM and inactive = higher.

Legend:
Assay in all cases: NCI tumour cell line growth inhibition, 48 h
BT-549 = system: BT-549
M14 = system: M14
T47D = system: T47D
NCI-H522 = system: NCI-H522
U-251 = system: U-251
NCI-H23 = system: NCI-H23
K562 = system: K562
PC-3 = system: PC-3
SK-MEL-5 = system: SK-MEL-5
OVCAR-5 = system: OVCAR-5
RXF 393 = system: RXF 393
OVCAR-8 = system: OVCAR-8
HCC 2998 = system: HCC 2998
HOP-62 = system: HOP-62
COLO 205 = system: COLO 205
UACC-62 = system: UACC-62
SN12C = system: SN12C
IGROV-1 = system: IGROV-1
MCF7 = system: MCF7
UO-31 = system: UO-31
HCT-116 = system: HCT-116
CAKI-1 = system: CAKI-1
MOLT-4 = system: MOLT-4
OVCAR-4 = system: OVCAR-4
A498 = system: A498
ACHN = system: ACHN
MDA-MB-435 = system: MDA-MB-435
EKVX = system: EKVX
HT-29 = system: HT-29
CCRF-CEM = system: CCRF-CEM
SK-MEL-2 = system: SK-MEL-2
SNB-19 = system: SNB-19
HL-60 = system: HL-60
Malme-3M = system: Malme-3M
SK-MEL-28 = system: SK-MEL-28
KM12 = system: KM12
DU-145 = system: DU-145
MDA-N = system: MDA-N
OVCAR-3 = system: OVCAR-3
786-0 = system: 786-0
NCI/ADR-RES = system: NCI/ADR-RES
SR = system: SR
SNB-75 = system: SNB-75
NCI-H460 = system: NCI-H460
LOX IMVI = system: LOX IMVI
SF-295 = system: SF-295
TK-10 = system: TK-10
HCT-15 = system: HCT-15
NCI-H226 = system: NCI-H226
HOP-92 = system: HOP-92
SF-539 = system: SF-539
SF-268 = system: SF-268
SW-620 = system: SW-620
Hs-578T = system: Hs-578T
MDA-MB-231 = system: MDA-MB-231
UACC-257 = system: UACC-257
SK-OV-3 = system: SK-OV-3
A549 = system: A549

CCCNc1[nH]c(C(C)=O)c(N)c1C(=S)Nc1ccccc1
GI50 (BT-549): 24.2 µM (inactive)
GI50 (M14): 19.4 µM (inactive)
GI50 (T47D): 47.1 µM (inactive)
GI50 (NCI-H522): 4.15 µM (inactive)
GI50 (U-251): 31.7 µM (inactive)
GI50 (NCI-H23): 41 µM (inactive)
GI50 (K562): 43.4 µM (inactive)
GI50 (PC-3): > 100 µM (inactive)
GI50 (SK-MEL-5): 22.7 µM (inactive)
GI50 (OVCAR-5): 68.9 µM (inactive)
GI50 (RXF 393): 20.4 µM (inactive)
GI50 (OVCAR-8): 27.7 µM (inactive)
GI50 (HCC 2998): > 100 µM (inactive)
GI50 (HOP-62): 42 µM (inactive)
GI50 (COLO 205): 31.6 µM (inactive)
GI50 (UACC-62): 17.9 µM (inactive)
GI50 (SN12C): 32.8 µM (inactive)
GI50 (IGROV-1): 0.507 µM (active)
GI50 (MCF7): 19.2 µM (inactive)
GI50 (UO-31): 0.782 µM (active)
GI50 (HCT-116): 34.8 µM (inactive)
GI50 (CAKI-1): 46.8 µM (inactive)
GI50 (MOLT-4): 69.2 µM (inactive)
GI50 (OVCAR-4): 23.1 µM (inactive)
GI50 (A498): 27.4 µM (inactive)
GI50 (ACHN): 40.8 µM (inactive)
GI50 (MDA-MB-435): 21 µM (inactive)
GI50 (EKVX): 35.2 µM (inactive)
GI50 (HT-29): 20 µM (inactive)
GI50 (CCRF-CEM): 46.5 µM (inactive)
GI50 (SK-MEL-2): 9.2 µM (inactive)
GI50 (SNB-19): 38.4 µM (inactive)
GI50 (HL-60): 37.7 µM (inactive)
GI50 (Malme-3M): 28 µM (inactive)
GI50 (SK-MEL-28): 24.7 µM (inactive)
GI50 (KM12): 34 µM (inactive)
GI50 (DU-145): 54.7 µM (inactive)
GI50 (MDA-N): 41.4 µM (inactive)
GI50 (OVCAR-3): 42.4 µM (inactive)
GI50 (786-0): 26.4 µM (inactive)
GI50 (NCI/ADR-RES): 28.7 µM (inactive)
GI50 (SR): 17.2 µM (inactive)
GI50 (SNB-75): 37 µM (inactive)
GI50 (NCI-H460): 33.9 µM (inactive)
GI50 (LOX IMVI): 23.3 µM (inactive)
GI50 (SF-295): 43.3 µM (inactive)
GI50 (TK-10): 39.1 µM (inactive)
GI50 (HCT-15): 31.8 µM
GI50 (NCI-H226): 21.7 µM (inactive)
GI50 (HOP-92): 34 µM (inactive)
GI50 (SF-539): 10.8 µM (inactive)
GI50 (SF-268): 23.3 µM (inactive)
GI50 (SW-620): > 100 µM (inactive)
GI50 (Hs-578T): 39.3 µM (inactive)
GI50 (MDA-MB-231): 36.6 µM (inactive)
GI50 (UACC-257): 30.1 µM (inactive)
GI50 (SK-OV-3): 45.5 µM (inactive)
GI50 (A549): 33.3 µM (inactive)
